This note sets out measurements from patent US11208404B2 (PERENNA PHARMACEUTICALS, INC., priority 2017, dated 2021).

Each structure is given as a SMILES string. Several values for one entry are separate records, joined by “and”; a condition that tells them apart may be missing. Equal entries are not always repeated. Where two headings read alike, the source gives them in different places.

This experiment concerns the target ALCAT1 (Homo sapiens (Human), UniProt Q6UWP7). The experiment in a line: In vitro acyltransferase assay for ALCAT1 inhibitors. To be noted: for inhibition at 1 µM / % inh @ 1 μM: 1 μM compound; for inhibition at 1 µM / inhibition at 10 µM / % inh @ 1 μM / % inh @ 10 μM: in vitro enzymatic assay; for inhibition at 10 µM / % inh @ 10 μM: 10 μM compound; for IC50: ALCAT1 enzyme activity. It is filed as biochemical. From the text: The human ALCAT1 protein were expressed in Spodoptera frugiperda (Sf9) insect cells by using a Bac-to-Bac baculovirus expression system (Invitrogen) according to the manufacturer's instruction. High-titer recombinant baculovirus expressing the human ALCAT1 protein was generated by several rounds of viral amplification. The Sf9 cells were typically infected with recombinant baculovirus for 3 days, harvested in ice-cold phosphate-buffered saline (PBS), and homogenized in 20 mm NaCl by going through French press. The total cell lysates were centrifuged at 10,000×g for 1 hours at 4° C. to eliminate the nucleus fraction, followed by ultracentrifugation at 100,000×g to pallet the membrane fraction. The membrane fraction was resuspended in enzymatic buffer that contain 10% glycerol, quantified for protein concentration, aliquoted, and stored at −80° C.
ALCAT1 enzymatic activity was determined by measuring the conversion of monolysocardiolipin (MLCL) to cardiolipin or lysophosphatidylglycerol (LPG) to phosphatidylglycerol (PG) in an enzymatic reaction mixture that contained 50 mm Tris/HCl, pH 7.0, 100 μm lysophospholipids, 25 μm [^14C]acyl-CoA (50 mCi/mmol, American Radiolabeled Chemicals, Inc), and membrane fraction (0.5-2.5 μg) in a total volume of 200 μl. The reaction was incubated at room temperature for 30 min. The lipids were extracted will chloroform, dried, and separated by thin layer chromatography (TLC) with chloroform:hexane:methanol:acetic acid (50:30:10:5, v/v) or chloroform:methanol:water (65:25:4, v/v). After separation, TLC plates were exposed to a Phosphorlmager screen to visualize the radiolabeled products with a Molecular Dynamics Typhoon Scanner (Sunnyvale, Calif.). In some experiments, NBD-CoA was used at 100 μM to replace the [^14C]acyl-CoA in the enzymatic reaction. All quantitative data were expressed as mean±S.E. Statistical analyses for differences between two groups were carried out using a Student's t test.
Compound inhibitors for ALCAT1 enzyme were analyzed by an in vitro enzymatic assay as detailed above. Compound inhibitors were added to the enzymatic mixture at 1-20 μM concentrations before the start of the acyltransferase reaction.
Where multiple measurements were taken this is indicated by a “/” between multiple values.
IC50 values for each compound were analyzed in triplicates, and calculated by GraphPad software.

Setting [1] is: triplicates, GraphPad, read-out: IC50.

Sequence of ALCAT1 (Q6UWP7 whole entry): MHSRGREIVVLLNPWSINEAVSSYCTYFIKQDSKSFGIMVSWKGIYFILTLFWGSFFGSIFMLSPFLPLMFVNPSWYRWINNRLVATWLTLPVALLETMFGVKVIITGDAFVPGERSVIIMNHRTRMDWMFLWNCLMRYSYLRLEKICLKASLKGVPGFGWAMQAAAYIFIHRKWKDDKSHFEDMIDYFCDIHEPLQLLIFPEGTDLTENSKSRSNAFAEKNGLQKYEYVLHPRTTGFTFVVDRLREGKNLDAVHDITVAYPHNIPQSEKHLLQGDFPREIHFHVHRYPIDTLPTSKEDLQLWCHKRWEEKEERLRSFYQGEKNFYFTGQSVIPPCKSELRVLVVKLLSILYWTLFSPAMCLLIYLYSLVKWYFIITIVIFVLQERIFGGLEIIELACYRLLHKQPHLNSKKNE

In general, inhibition refers to the share of the control response that was lost under treatment. A lower inhibition goes with a weak effect. For orientation: IC50 means the concentration needed to halve the response being measured. For `O=C(Nc1cccc(-c2nnc(-c3ccco3)o2)c1)c1cc(F)c(F)cc1F` [Compound 144], the inhibition at 1 µM was determined as 73% and the inhibition at 10 µM was 92%. Also, the concentration for half-maximal inhibition (IC50) under setting [1] came out at 130 nM.
`CCOc1ccc(C)cc1C(=O)Nc1cccc(-c2nnc(-c3ccco3)o2)c1` [Compound 218, 2-Ethoxy-N-(3-(5-(furan-2-yl)-1,3,4-oxadiazol-2-yl)phenyl)-5-methylbenzamide]: the “% inh @ 1 μM” value was 98% and 1 µM produced 99% inhibition. Besides, the IC50 under setting [1] is 67 nM.
As for `COc1ccc(F)c(C(=O)Nc2cccc(-c3nnc(-c4ccco4)o3)c2)c1` [Compound 214], the “% inh @ 1 μM” value was 76% and the inhibition at 1 µM came to 67%.
`O=C(Nc1cccc(-c2nnc(-c3cccs3)o2)c1)c1ccccc1F` [Compound 15, 2-fluoro-N-(3-(5-(thiophen-2-yl)-1,3,4-oxadiazol-2-yl)phenyl)benzamide] yielded an inhibition at 1 µM of 20%.
`O=C(Nc1cc(-c2nnc(-c3ccco3)o2)ccc1F)c1ccccc1F` [Compound 27] gave an inhibition at 10 µM of 98%. Also, under setting [1], the 50% inhibitory concentration (IC50) came out at 47 nM.
Take `CSc1ccccc1C(=O)Nc1cccc(-c2nnc(-c3ccco3)o2)c1` [Compound 181]: at 1 µM the inhibition was 34% and at 10 µM the inhibition was 68%.
The compound `O=C(Nc1cccc(-c2nnc(-c3ccco3)o2)c1)c1c(F)ccc([N+](=O)[O-])c1F` [Compound 344] yielded an inhibition at 1 µM of 33%.
Take `CC(C)Oc1ccc(Br)cc1C(=O)Nc1cccc(-c2nnc(-c3ccco3)o2)c1` [Compound 477]: at 1 µM the inhibition was 63% and the inhibition at 10 µM is 68%.
Turning to `O=C(Nc1cccc(-c2nnc(-c3ccco3)o2)c1)c1cccnc1F` [Compound 37], the “% inh @ 10 μM” value worked out at 87% and the inhibition at 10 µM is 76%. Also, under setting [1], the IC50 amounted to 3900 nM.
As for `O=C(Nc1cccc(-c2nnc(-c3ccco3)o2)c1)c1cccc([N+](=O)[O-])c1F` [Compound 340], the inhibition at 1 µM was 72%.
`O=C(Nc1cc(-c2nnc(-c3ccco3)o2)ccc1F)c1cc(Cl)ccc1Cl` [Compound 347] had an inhibition at 1 µM of 94%.
`O=C(Nc1cccc(-c2nnc(-c3ccco3)o2)c1)c1ccccc1OCC(F)F` [Compound 275]: the “% inh @ 1 μM” value is 99% and at 1 µM the inhibition was 98%. Further, the IC50 under setting [1] came out at 200 nM.
Take `O=C(Nc1cccc(-c2nnc(-c3ccco3)o2)c1)c1cc(Cl)ccc1OCC(F)(F)F` [Compound 225, 5-Chloro-N-(3-(5-(furan-2-yl)-1,3,4-oxadiazol-2-yl)phenyl)-2-(2,2,2-trifluoroethoxy)benzamide]: the “% inh @ 1 μM” value came out at 97% and the inhibition at 1 µM amounted to 92%. In addition, the IC50 under setting [1] amounted to 100 nM.
In turn, `COc1ccc(C(=O)Nc2cc(-c3nnc(-c4ccco4)o3)ccc2F)cc1[N+](=O)[O-]` [Compound 333] displayed an inhibition at 1 µM of 18%.
Turning to `CCOc1ccccc1C(=O)Nc1cc(-c2nnc(-c3ccco3)o2)ccc1F` [Compound 215, 2-Ethoxy-N-(2-fluoro-5-(5-(furan-2-yl)-1,3,4-oxadiazol-2-yl)phenyl)benzamide], the “% inh @ 1 μM” value is listed as 100/100% and the inhibition at 1 µM came out at 100%. For the setting “read-out: IC50 values (upper bounds)”, the concentration for half-maximal inhibition (IC50) is less than 100 nM. The IC50 under setting [1] was found to be 26 nM.
For the compound `CCc1ccccc1C(=O)Nc1cccc(-c2nnc(-c3ccco3)o2)c1` [Compound 240], the “% inh @ 1 μM” value is listed as 6% and testing at 1 µM gave an inhibition of 12%.
On to `O=C(Nc1cccc(-c2nnc(-c3ccoc3)o2)c1)c1ccccc1F` [Compound 20, 2-fluoro-N-(3-(5-(furan-3-yl)-1,3,4-oxadiazol-2-yl)phenyl)benzamide], for which the inhibition at 1 µM came to 13%.
Turning to `COc1ccc(F)cc1C(=O)Nc1cccc(-c2nnc(-c3ccco3)o2)c1` [Compound 127], the inhibition at 1 µM stood at 85% and at 10 µM the inhibition was 100%. Under setting [1], the 50% inhibitory concentration (IC50) amounted to 210 nM.
In turn, `O=C(Nc1cccc(-c2nnc(-c3ccco3)o2)c1)c1ccc([N+](=O)[O-])cc1` [Compound 85] displayed an inhibition at 1 µM of 10% and an inhibition at 10 µM of 3%.
`O=C(Nc1cccc(-c2nnc(-c3ccco3)o2)c1)c1cc(F)ccc1OCC(F)(F)F` [Compound 228, 5-Fluoro-N-(3-(5-(furan-2-yl)-1,3,4-oxadiazol-2-yl)phenyl)-2-(2,2,2-trifluoroethoxy)benzamide]: the “% inh @ 1 μM” value worked out at 99% and the inhibition at 1 µM is 100%. Also, under setting [1], the IC50 was found to be 72 nM.
`O=C(Nc1cccc(-c2nnc(-c3ccco3)o2)c1F)c1ccccc1F` [Compound 79, 2-fluoro-N-(2-fluoro-3-(5-(furan-2-yl)-1,3,4-oxadiazol-2-yl)phenyl)benzamide] displayed an inhibition at 1 µM of 89%. Further, the IC50 under setting [1] came to 110 nM.
For `COc1ccc([N+](=O)[O-])cc1C(=O)Nc1cccc(-c2nnc(-c3ccco3)o2)c1` [Compound 341], in that order: 73% and 500 nM.
With `COc1ccc(NC(=O)c2ccccc2F)cc1-c1nnc(-c2ccco2)o1` [Compound 136], the “% inh @ 1 μM” value was 23% and at 1 µM the inhibition was 28%.
Take `Cc1cccc(C(=O)Nc2cccc(-c3nnc(-c4ccco4)o3)c2)c1` [Compound 57]: the “% inh @ 10 μM” value is 89% and 94%; 10 µM produced 75% inhibition. Further, the IC50 under setting [1] is 2800 nM.
`O=C(Nc1cccc(-c2nnc(-c3ccco3)o2)c1)c1cccc(O)c1` [Compound 62] gave an inhibition at 1 µM of 2% and an inhibition at 10 µM of 11%.
With `CCCOc1ccc(C)cc1C(=O)Nc1cccc(-c2nnc(-c3ccco3)o2)c1` [Compound 207], the “% inh @ 1 μM” value worked out at 87% and at 1 µM the inhibition was 86%. Besides, the IC50 under setting [1] came to 190 nM.
`COc1cccc(C(=O)Nc2cccc(-c3nnc(-c4ccco4)o3)c2)c1` [Compound 58] returned an inhibition at 10 µM of 45%. For the same compound, the IC50 under setting [1] came out at 2400 nM.
As to `COc1cccc(F)c1C(=O)Nc1cccc(-c2nnc(-c3ccco3)o2)c1` [Compound 179], the inhibition at 1 µM was 17% and at 10 µM the inhibition was 41%.
On to `COc1ccc(OC)c(C(=O)Nc2cccc(-c3nnc(-c4ccco4)o3)c2)c1` [Compound 171], for which 1 µM produced 79% inhibition and testing at 10 µM gave an inhibition of 100%. Further, the IC50 under setting [1] was determined as 350 nM.
As for `O=C(Nc1cccc(-c2nnc(-c3ccco3)o2)c1)c1cccc(-c2ccccc2)c1` [Compound 238], the “% inh @ 1 μM” value is recorded as 23/23% and the inhibition at 1 µM is 23%.
As to `O=C(Nc1cccc(-c2nnc(-c3ccco3)o2)c1)c1cc(Cl)ccc1F` [Compound 189], the inhibition at 1 µM is 92% and the inhibition at 10 µM worked out at 100%. In addition, the 50% inhibitory concentration (IC50) under setting [1] is 320 nM.
`O=C(Nc1cccc(-c2nnc(-c3ccco3)o2)c1)c1ccccc1` [Compound 46]: the “% inh @ 10 μM” value was 43% and 68% and 75%. The concentration for half-maximal inhibition (IC50) under setting [1] came out at 3800 nM.
`COc1c(NC(=O)c2ccccc2F)cccc1-c1nnc(-c2ccco2)o1` [Compound 140] came in with an inhibition at 1 µM of 29%.
As for `O=C(Nc1cccc(-c2nnc(-c3ccco3)o2)c1)c1ccccc1OC(F)(F)F` [Compound 232], the “% inh @ 1 μM” value is listed as 61/61% and the inhibition at 1 µM was determined as 61%.
`O=C(Nc1cccc(-c2nnc(-c3ccco3)o2)c1)c1ccccc1C(F)F` [Compound 9] gave an inhibition at 1 µM of 47% and an inhibition at 10 µM of 87%.
In turn, `O=C(O)c1ccccc1C(=O)Nc1cccc(-c2nnc(-c3ccco3)o2)c1` [Compound 11] yielded an inhibition at 10 µM of 9%.
On the same count and under the same terms, next, `Cc1ccc(-c2nnc(-c3cccc(NC(=O)c4ccccc4F)c3)o2)o1` [Compound 19]: 2%.
In turn, `O=C(Nc1cc(-c2nnc(-c3ccco3)s2)ccc1F)c1ccccc1F` [Compound 325] came in with an inhibition at 1 µM of 63%.
On to `O=C(Nc1cccc(-c2nnc(-c3cncs3)o2)c1)c1ccccc1F` [Compound 292], for which the “% inh @ 1 μM” value was determined as 12% and the inhibition at 1 µM is 14%.
In the case of `O=C(Nc1cc(-c2nnc(-c3ccco3)o2)ccc1F)c1ccccc1OC(F)(F)F` [Compound 301, N-(2-Fluoro-5-(5-(furan-2-yl)-1,3,4-oxadiazol-2-yl)phenyl)-2-(trifluoromethoxy)benzamide], the half-inhibitory concentration (IC50) under setting [1] is 100 nM.
The compound `COc1c(C)cccc1C(=O)Nc1cccc(-c2nnc(-c3ccco3)o2)c1` [Compound 182] returned an inhibition at 1 µM of 33%.
Still for that read-out and setting: next, `O=C(Nc1cc(-c2nnc(-c3ccco3)o2)ccc1F)c1ccc2c(c1)COC2` [Compound 331]: 12%.
